Format in all cases: biochemical
Assay [1] deals with human JAK1 (a.a. 837-1142) (Homo sapiens, UniProt P23458). Kind of assay: In vitro JAK kinase assay (HTRF, phosphorylation of a biotinylated peptide), JAK1. The settings on record: measured at 1 mM ATP. The method in brief:
(§1)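 Phosphorylation of a biotinylated peptide by purified His-tagged JAK catalytic domains (insect-cell baculovirus expression) ran 1 hr at room temperature. After stopping with EDTA, Eu-Py20 and SA-APC were bound for 40 minutes and HTRF measured.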
In general terms: TR-FRET usually uses a lanthanide donor and a delayed reading to cut background.

Assay [2] concerns the target human JAK1 (a.a. 837-1142). Described as above. Particulars: ratio of JAK2 IC50 to JAK1 IC50, measured at 1 mM ATP. The essentials:
as §1

Assay [3] addresses Jak2 (a.a. 828-1132) (Homo sapiens (Human), UniProt O60674). Put plainly: In vitro JAK kinase assay (HTRF, phosphorylation of a biotinylated peptide), JAK2. Particulars: measured at 1 mM ATP. The essentials: as §1

Where a name gives a salt, the structure may show the parent alone. Bounds are passed on as bounds.

A word on the IC50: it is the concentration that inhibits the measured activity by half. A high value points to weaker potency in that assay.

Chain of Jak2 (a.a. 828-1132) (O60674 828-1132): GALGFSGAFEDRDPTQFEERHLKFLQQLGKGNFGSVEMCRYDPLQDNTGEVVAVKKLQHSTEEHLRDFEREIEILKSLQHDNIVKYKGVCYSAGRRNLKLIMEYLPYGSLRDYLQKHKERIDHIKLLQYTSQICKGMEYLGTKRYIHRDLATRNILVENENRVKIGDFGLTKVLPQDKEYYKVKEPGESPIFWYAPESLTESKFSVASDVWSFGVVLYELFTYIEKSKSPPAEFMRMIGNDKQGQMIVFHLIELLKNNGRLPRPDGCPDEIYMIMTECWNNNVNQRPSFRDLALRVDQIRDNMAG

In the case of `N#CCC1(n2cc(-c3c(F)cnc4[nH]ccc34)cn2)CN(C2CCN(C(=O)c3ccc(O)cc3F)CC2)C1` [Example 323, {1-[1-(2-fluoro-4-hydroxybenzoyl)piperidin-4-yl]-3-[4-(5-fluoro-1H-pyrrolo[2,3-b]pyridin-4-yl)-1H-pyrazol-1-yl]azetidin-3-yl}acetonitrile], the IC50 is not above 5 nM in assay [1] and not above 10 nM in assay [3]. Moreover, in assay [2], the “IC50 Ratio JAK2/JAK1” value is 5.0.
Turning to `CN(C)c1c(F)c(F)c(C(=O)N2CCC(N3CC(CC#N)(n4cc(-c5ncnc6[nH]ccc56)cn4)C3)CC2)c(F)c1F` [Example 60, {1-{1-[4-(dimethylamino)-2,3,5,6-tetrafluorobenzoyl]piperidin-4-yl}-3-[4-(7H-pyrrolo[2,3-d]pyrimidin-4-yl)-1H-pyrazol-1-yl]azetidin-3-yl}acetonitrile], the IC50 in assay [1] was not above 5 nM; in assay [3] it was not above 10 nM. In addition, in assay [2], the “IC50 Ratio JAK2/JAK1” value came to 1.8.
The matching figures for `COc1ccsc1C(=O)N1CCC(N2CC(CC#N)(n3cc(-c4ncnc5[nH]ccc45)cn3)C2)CC1` [Example 81, {1-{1-[(3-methoxy-2-thienyl)carbonyl]piperidin-4-yl}-3-[4-(7H-pyrrolo[2,3-d]pyrimidin-4-yl)-1H-pyrazol-1-yl]azetidin-3-yl}acetonitrile]: not above 5 nM, not above 10 nM and 4.2.
Regarding `N#CCC1(n2cc(-c3ncnc4[nH]ccc34)cn2)CN(C2CCN(C(=O)Nc3ccc(Cl)cc3)CC2)C1` [Example 184, N-(4-chlorophenyl)-4-{3-(cyanomethyl)-3-[4-(7H-pyrrolo[2,3-d]pyrimidin-4-yl)-1H-pyrazol-1-yl]azetidin-1-yl}piperidine-1-carboxamide], the IC50 in assay [1] is not above 5 nM; in assay [3], not above 10 nM. Moreover, in assay [2], the “IC50 Ratio JAK2/JAK1” value worked out at 3.9.
The corresponding values for `N#CCC1(n2cc(-c3ncnc4[nH]ccc34)cn2)CN(C2CCN(C(=O)c3c(F)cc(-c4cccnc4)cc3F)CC2)C1` [Example 116, {1-[1-(2,6-difluoro-4-pyridin-3-ylbenzoyl)piperidin-4-yl]-3-[4-(7H-pyrrolo[2,3-d]pyrimidin-4-yl)-1H-pyrazol-1-yl]azetidin-3-yl}acetonitrile] are not above 5 nM, 10 to 50 nM and 10.6.
The corresponding values for `N#CCC1(n2cc(-c3ncnc4[nH]ccc34)cn2)CN(C2CCN(Cc3cc(F)cc(F)c3)CC2)C1` [Example 215, {1-[1-(3,5-difluorobenzyl)piperidin-4-yl]-3-[4-(7H-pyrrolo[2,3-d]pyrimidin-4-yl)-1H-pyrazol-1-yl]azetidin-3-yl}acetonitrile] are not above 5 nM, 10 to 50 nM and 5.7.
The corresponding values for `COc1ccccc1NC(=O)N1CCC(N2CC(CC#N)(n3cc(-c4ncnc5[nH]ccc45)cn3)C2)CC1` [Example 180, 4-{3-(cyanomethyl)-3-[4-(7H-pyrrolo[2,3-d]pyrimidin-4-yl)-1H-pyrazol-1-yl]azetidin-1-yl}-N-(2-methoxyphenyl)piperidine-1-carboxamide] are not above 5 nM, 10 to 50 nM and 4.0.
For `N#CCC1(n2cc(-c3ncnc4[nH]ccc34)cn2)CN(C2CCN(C(=O)Nc3ccccc3F)CC2)C1` [Example 169, 4-{3-(cyanomethyl)-3-[4-(7H-pyrrolo[2,3-d]pyrimidin-4-yl)-1H-pyrazol-1-yl]azetidin-1-yl}-N-(2-fluorophenyl)piperidine-1-carboxamide], the values for the concentration for half-maximal inhibition (IC50) in assay [1] and in assay [3] were not above 5 nM and 10 to 50 nM, respectively. Also, the “IC50 Ratio JAK2/JAK1” value in assay [2] was 5.5.
The corresponding values for `N#CCC1(n2cc(-c3ncnc4[nH]ccc34)cn2)CN(C2CCN(C(=O)c3ccc(-c4cccc(C#N)c4)c(F)c3)CC2)C1` [Example 125, 4′-[(4-{3-(cyanomethyl)-3-[4-(7H-pyrrolo[2,3-d]pyrimidin-4-yl)-1H-pyrazol-1-yl]azetidin-1-yl}piperidin-1-yl)carbonyl]-2′-fluorobiphenyl-3-carbonitrile] are not above 5 nM, 10 to 50 nM and 8.1.
The matching figures for `N#CCC1(n2cc(-c3ccnc4[nH]ccc34)cn2)CN(C2CCN(C(=O)Nc3cnccc3C(F)(F)F)CC2)C1` [Example 308, 4-{3-(cyanomethyl)-3-[4-(1H-pyrrolo[2,3-b]pyridin-4-yl)-1H-pyrazol-1-yl]azetidin-1-yl}-N-[4-(trifluoromethyl)pyridin-3-yl]piperidine-1-carboxamide]: not above 5 nM, 50 to 100 nM and 10.4.
The matching figures for `Cc1cc(C(=O)N2CCC(N3CC(CC#N)(n4cc(-c5ncnc6[nH]ccc56)cn4)C3)CC2)cs1` [Example 73, {1-{1-[(5-methyl-3-thienyl)carbonyl]piperidin-4-yl}-3-[4-(7H-pyrrolo[2,3-d]pyrimidin-4-yl)-1H-pyrazol-1-yl]azetidin-3-yl}acetonitrile]: not above 5 nM, not above 10 nM and 4.2.
In the case of `CNCc1cc(C(=O)N2CCC(N3CC(CC#N)(n4cc(-c5ncnc6[nH]ccc56)cn4)C3)CC2)nc(C(F)(F)F)n1` [Example 371, {1-(1-{[6-[(methylamino)methyl]-2-(trifluoromethyl)pyrimidin-4-yl]carbonyl}piperidin-4-yl)-3-[4-(7H-pyrrolo[2,3-d]pyrimidin-4-yl)-1H-pyrazol-1-yl]azetidin-3-yl}acetonitrile trifluoroacetate salt], the IC50 in assay [1] was not above 5 nM; in assay [3] it was 50 to 100 nM. Moreover, in assay [2], the “IC50 Ratio JAK2/JAK1” value is on record as 65.3.
The corresponding values for `N#CCC1(n2cc(-c3ncnc4[nH]ccc34)cn2)CN(C2CC3CCC(C2)N3C(=O)c2ccc(C#N)c(F)c2)C1` (stereo not drawn) [Example 140, 4-[(3-{3-(cyanomethyl)-3-[4-(7H-pyrrolo[2,3-d]pyrimidin-4-yl)-1H-pyrazol-1-yl]azetidin-1-yl}-8-azabicyclo[3.2.1]oct-8-yl)carbonyl]-2-fluorobenzonitrile] are 5 to 20 nM, 10 to 50 nM and 5.4.
The corresponding values for `N#CCC1(n2cc(-c3ncnc4[nH]ccc34)cn2)CN(C2CCN(C(=O)c3cc4cccc(C(F)(F)F)c4s3)CC2)C1` [Example 95, [3-[4-(7H-pyrrolo[2,3-d]pyrimidin-4-yl)-1H-pyrazol-1-yl]-1-(1-{[7-(trifluoromethyl)-1-benzothien-2-yl]carbonyl}piperidin-4-yl)azetidin-3-yl]acetonitrile] are not above 5 nM, not above 10 nM and 2.7.
On to `COC(=O)c1ccccc1NC(=O)N1CCC(N2CC(CC#N)(n3cc(-c4ncnc5[nH]ccc45)cn3)C2)CC1` [Example 206, methyl 2-{[(4-{3-(cyanomethyl)-3-[4-(7H-pyrrolo[2,3-d]pyrimidin-4-yl)-1H-pyrazol-1-yl]azetidin-1-yl}piperidin-1-yl)carbonyl]amino}benzoate], for which the IC50 was not above 5 nM in assay [1] and not above 10 nM in assay [3]. Further, the “IC50 Ratio JAK2/JAK1” value in assay [2] is given as 1.6.

These data come from patent US9999619B2, “Piperidin-4-yl azetidine derivatives as JAK1 inhibitors” (Incyte Corporation, priority 2010, dated 2018).
